Values quoted from earlier work in US9034798B2, “Capture compounds, collections thereof and methods for analyzing the proteome and complex compositions” (CAPROTEC BIOANALYTICS GMBH, priority 2003, dated 2015).

Details: for drug-induced hepatotoxicity: clinical studies; for heart failure: six male patients with poor heart and kidney function; for deaths: reported before withdrawal from the market

heart failure | Structure (SMILES) | drug-induced hepatotoxicity | deaths [deaths]
caused heart failure | CCc1ccc(CCOc2ccc(CC3SC(=O)NC3=O)cc2)nc1 (stereo not drawn) [Actos, Pioglitazone] | no evidence of drug-induced hepatotoxicity | –
caused heart failure | CN(CCOc1ccc(CC2SC(=O)NC2=O)cc1)c1ccccn1 (stereo not drawn) [Avandia, Rosiglitazone] | no evidence of drug-induced hepatotoxicity | –
– | COCc1c(C(C)C)nc(C(C)C)c(/C=C/[C@@H](O)C[C@@H](O)CC(=O)O)c1-c1ccc(F)cc1 [Baycol, cerivastatin sodium] | – | 31
– | Cc1c(C)c2c(c(C)c1O)CCC(C)(COc1ccc(CC3SC(=O)NC3=O)cc1)O2 (stereo not drawn) [Rezulin, Troglitazone] | – | 398
